Measured values reported in patent US20060153933A1 (priority 2002, published 2006).
Read-outs that look alike come from different tables or passages of the source.

How the values were obtained:
[1] = test system: Phytophthora infestans (PHYTIN); test: whole plant or invertebrate; type: in vivo; conditions: for pest or weed control at 1.85 ppm: read-out: % Disease Control (observed)
[2] = test system: Plasmopara viticola (PLASVI); test: whole plant or invertebrate; type: in vivo
[3] = Plasmopara viticola, 48 h, read-out: % Disease Control (observed), 2DP, 1.85 ppm alone
[4] = Phytophthora infestans, 24 h, read-out: % Disease Control (observed), 1DP, 5.56 ppm alone
[5] = Phytophthora infestans, 24 h, read-out: % Disease Control (observed), 1DP, 0.62 ppm alone

COC(=O)CC(NC(=O)[C@@H](NC(=O)OC(C)C)C(C)C)c1ccc(Cl)cc1 (mixture of isomers) [Compound 1, methyl (±)RS-[3-(N-isopropoxycarbonyl-S-valinyl)amino]-3-(4-chlorophenyl)propanoate]
% Disease Control (Observed) ([1]; 2DP, 0.62 ppm alone): 7.0%
% Disease Control (Observed) ([1]; in vivo): 40.4%
% Disease Control (Observed) ([2]; 2DP, 1.85 ppm alone): 5.3%

C[C@@]1(c2ccc(Oc3ccccc3)cc2)OC(=O)N(Nc2ccccc2)C1=O (racemic) [Famoxadone, famoxadone]
pest or weed control at 1.85 ppm ([1]; Phytophthora infestans, 48 h): 47.4%
pest or weed control at 1.85 ppm [2, 3]: 31.6%

CO/C=C(/C(=O)OC)c1ccccc1Oc1cc(Oc2ccccc2C#N)ncn1 [Azoxystrobin, azoxystrobin]
% Disease Control (Observed) ([1]; 3DP, 5.56 ppm alone): 33.3%
% Disease Control (Observed) ([2]; 3DP, 1.85 ppm alone): 28.1%
% Disease Control (Observed) ([2]; 3DP, 5.56 ppm alone): 59.6%

O=C1C2CC=CCC2C(=O)N1SC(Cl)(Cl)Cl (centres unmarked) [Captan, captan]
pest or weed control at 5.56 ppm [1, 4]: 0%

N#Cc1c(Cl)c(Cl)c(Cl)c(C#N)c1Cl [Chlorothalonil, chlorothalonil]
pest or weed control at 5.56 ppm [1, 4]: 0%
pest or weed control at 1.85 ppm ([2]; Plasmopara viticola, 24 h, read-out: % Disease Control (observed), 1DP, 1.85 ppm alone): 0%

[Cl-].[Cu+2].[Cu+2].[OH-].[OH-].[OH-] [Cu oxychloride, copper oxychloride]
% Disease Control (Observed) ([1]; 3DP, 5.56 ppm alone): 17.5%
% Disease Control (Observed) ([1]; 3DP, 16.70 ppm alone): 24.6%
% Disease Control (Observed) ([1]; PHYTIN 6DP, applied alone at 12.8 ppm): 0%
% Disease Control (Observed) ([1]; PHYTIN 6DP, applied alone at 38.3 ppm): 22.8%
% Disease Control (Observed) ([1]; Table 10, PHYTIN (3DP) as printed, 16.70 ppm alone): 7.0%
% Disease Control (Observed) ([2]; PLASVI 6DP, applied alone at 38.3 ppm): 3.5%

[Cu+2].[OH-].[OH-] [Cu(OH)2, copper hydroxide]
% Disease Control (Observed) ([1]; 3DP, 5.56 ppm alone): 14.0%
% Disease Control (Observed) ([2]; 3DP, 16.70 ppm alone): 10.5%

Cc1ccc(-c2c(Cl)nc(C#N)n2S(=O)(=O)N(C)C)cc1 [Cyazofamid, cyazofamid]
pest or weed control at 0.62 ppm ([1]; Phytophthora infestans, 72 h, read-out: % Disease Control (observed), 3DP, 0.62 ppm alone): 82.5%
pest or weed control at 0.62 ppm ([2]; Plasmopara viticola, 72 h, read-out: % Disease Control (observed), 3DP, 0.62 ppm alone): 7%

CCNc1nc(CC)c(C(=O)NC(C#N)c2cccs2)s1 (centres unmarked) [Ethaboxam, ethaboxam]
% Disease Control (Observed) ([1]; 2DP, 0.62 ppm alone): 10.5%
% Disease Control (Observed) ([2]; 2DP, 1.85 ppm alone): 50.9%
% Disease Control (Observed) ([2]; 2DP, 5.56 ppm alone): 78.9%

O=[N+]([O-])c1cc(C(F)(F)F)c(Cl)c([N+](=O)[O-])c1Nc1ncc(C(F)(F)F)cc1Cl [Fluazinam, fluazinam]
pest or weed control at 1.85 ppm ([1]; Phytophthora infestans, 72 h): 12.3%
pest or weed control at 5.56 ppm ([1]; Phytophthora infestans, 72 h, read-out: % Disease Control (observed), 3DP, 5.56 ppm alone): 50.9%
pest or weed control at 1.85 ppm [2, 3]: 14%

O=C1c2ccccc2C(=O)N1SC(Cl)(Cl)Cl [Folpet, folpet]
% Disease Control (Observed) ([1]; PHYTIN 2DP, applied alone at 4.3 ppm): 1.8%
% Disease Control (Observed) ([1]; PHYTIN 2DP, applied alone at 12.8 ppm): 5.3%
pest or weed control at 0.62 ppm [1, 5]: 0%
% Disease Control (Observed) ([2]; PLASVI 2DP, applied alone at 4.3 ppm): 1.8%
% Disease Control (Observed) ([2]; PLASVI 2DP, applied alone at 12.8 ppm): 22.8%
pest or weed control at 5.56 ppm ([2]; Plasmopara viticola, 24 h, read-out: % Disease Control (observed), 1DP, 5.56 ppm alone): 0%

CC[C@H](CS(=O)(=O)[C@@H](C)c1ccc(C#N)cc1)NC(=O)Oc1ccc(F)cc1 [Formula IIIa, 4-fluorophenyl(1S)-1-({[(1S)-1-(4-cyanophenyl)ethyl]sulfonyl}methyl) propylcarbamate]
% Disease Control (Observed) ([1]; 4DP, 0.3 ppm alone): 19.3%
% Disease Control (Observed) ([1]; 4DP, 0.60 ppm alone): 10.50%
% Disease Control (Observed) ([1]; 4DP, 0.9 ppm alone): 73.7%
% Disease Control (Observed) ([1]; 4DP, 1.9 ppm alone): 78.9%
% Disease Control (Observed) ([1]; 4DP, 1.90 ppm alone): 78.90%
% Disease Control (Observed) ([2]; 4DP, 1.9 ppm alone): 14.0%
% Disease Control (Observed) ([2]; 4DP, 1.90 ppm alone): 14.00%
% Disease Control (Observed) ([2]; 4DP, 2.8 ppm alone): 76.3%

CCO[PH](=O)O [Fosetyl-Al, fosetyl-Al]
% Disease Control (Observed) ([1]; PHYTIN 6DP, applied alone at 11.1 ppm): 0%
% Disease Control (Observed) ([1]; PHYTIN 6DP, applied alone at 33.3 ppm): 0%
% Disease Control (Observed) ([1]; in vivo): 0.0%
% Disease Control (Observed) ([2]; 7DP, 1.85 ppm alone): 8.8%
% Disease Control (Observed) ([2]; 7DP, 5.56 ppm alone): 10.5%
% Disease Control (Observed) ([2]; 7DP, 16.70 ppm alone): 12.3%
% Disease Control (Observed) ([2]; PLASVI 6DP, applied alone at 33.3 ppm): 0%

COCC(=O)N(c1c(C)cccc1C)C(C)C(=O)OC (centres unmarked) [Metalaxyl, metalaxyl]
pest or weed control at 5.56 ppm [1, 4]: 0%
pest or weed control at 1.9 ppm ([2]; Plasmopara viticola, 72 h, read-out: % Disease Control (observed), 3DP, 1.90 ppm alone): 15.8%
pest or weed control at 5.6 ppm ([2]; Plasmopara viticola, 72 h, read-out: % Disease Control (observed), 3DP, 5.60 ppm alone): 21.1%

COCC(=O)N(c1c(C)cccc1C)N1CCOC1=O [Oxadixyl, oxadixyl]
pest or weed control at 0.62 ppm [1, 5]: 0%
pest or weed control at 1.9 ppm ([1]; Phytophthora infestans, 24 h, read-out: % Disease Control (observed), 1DP, 1.90 ppm alone): 24.6%
pest or weed control at 0.2 ppm ([2]; Plasmopara viticola, 24 h, read-out: % Disease Control (observed), 1DP, 0.20 ppm alone (Formula III 0.00 ppm)): 19.3%

CO/C=C(/C(=O)OC)c1ccccc1COc1cccc(C(F)(F)F)n1 [Picoxystrobin, picoxystrobin]
% Disease Control (Observed) ([1]; 3DP, 5.56 ppm alone): 59.6%
% Disease Control (Observed) ([2]; 3DP, 5.56 ppm alone): 61.4%
